Source: PubChem BioAssay (NCI)
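Cultured in 96-well plates, cells were exposed to test compound for 48 hours across five concentrations. TGI denotes the concentration required for complete inhibition of growth.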

Legend:
Assay in all cases: inhibition of tumour cell growth, NCI panel, 48 h
786-0 renal = tested on: 786-0 renal
A549 NSCLC = tested on: A549 NSCLC
ACHN renal = tested on: ACHN renal
BT-549 breast = tested on: BT-549 breast
CAKI-1 renal = tested on: CAKI-1 renal
CCRF-CEM leukemia = tested on: CCRF-CEM leukemia
COLO 205 colon = tested on: COLO 205 colon
DU-145 prostate = tested on: DU-145 prostate
EKVX NSCLC = tested on: EKVX NSCLC
HCT-116 colon = tested on: HCT-116 colon
HCT-15 colon = tested on: HCT-15 colon
HL-60(TB) leukemia = tested on: HL-60(TB) leukemia
HOP-62 NSCLC = tested on: HOP-62 NSCLC
HOP-92 NSCLC = tested on: HOP-92 NSCLC
HS 578T breast = tested on: HS 578T breast
HT29 colon = tested on: HT29 colon
IGROV1 ovarian = tested on: IGROV1 ovarian
K-562 leukemia = tested on: K-562 leukemia
KM12 colon = tested on: KM12 colon
LOX IMVI melanoma = tested on: LOX IMVI melanoma
M14 melanoma = tested on: M14 melanoma
MALME-3M melanoma = tested on: MALME-3M melanoma
MCF7 breast = tested on: MCF7 breast
MDA-MB-231 breast = tested on: MDA-MB-231 breast
MDA-MB-435 = tested on: MDA-MB-435
MDA-N = tested on: MDA-N
MOLT-4 leukemia = tested on: MOLT-4 leukemia
NCI-H226 lung = tested on: NCI-H226 lung
NCI-H23 lung = tested on: NCI-H23 lung
NCI-H460 lung = tested on: NCI-H460 lung
NCI-H522 lung = tested on: NCI-H522 lung
NCI/ADR-RES ovarian = tested on: NCI/ADR-RES ovarian
OVCAR-3 ovarian = tested on: OVCAR-3 ovarian
OVCAR-4 ovarian = tested on: OVCAR-4 ovarian
OVCAR-5 ovarian = tested on: OVCAR-5 ovarian
OVCAR-8 ovarian = tested on: OVCAR-8 ovarian
PC-3 prostate = tested on: PC-3 prostate
RPMI-8226 leukemia = tested on: RPMI-8226 leukemia
SF-268 CNS = tested on: SF-268 CNS
SF-295 CNS = tested on: SF-295 CNS
SF-539 CNS = tested on: SF-539 CNS
SK-MEL-2 melanoma = tested on: SK-MEL-2 melanoma
SK-MEL-5 melanoma = tested on: SK-MEL-5 melanoma
SK-OV-3 ovarian = tested on: SK-OV-3 ovarian
SN12C renal = tested on: SN12C renal
SNB-19 CNS = tested on: SNB-19 CNS
SNB-75 CNS = tested on: SNB-75 CNS
SR leukemia = tested on: SR leukemia
SW-620 colon = tested on: SW-620 colon
TK-10 renal = tested on: TK-10 renal
U251 CNS = tested on: U251 CNS
UACC-257 melanoma = tested on: UACC-257 melanoma
UACC-62 melanoma = tested on: UACC-62 melanoma
A498 renal = tested on: A498 renal
HCC-2998 colon = tested on: HCC-2998 colon
RXF 393 renal = tested on: RXF 393 renal
SK-MEL-28 melanoma = tested on: SK-MEL-28 melanoma
UO-31 renal = tested on: UO-31 renal
T-47D breast = tested on: T-47D breast

CC[C@H](Nc1c(O)c2c(c(O)c1Cl)C(=O)C=CC2=O)C(=O)OC
TGI (786-0 renal): > 10 µM
TGI (A549 NSCLC): > 10 µM
TGI (ACHN renal): > 10 µM
TGI (BT-549 breast): > 10 µM
TGI (CAKI-1 renal): > 10 µM
TGI (CCRF-CEM leukemia): > 10 µM
TGI (COLO 205 colon): > 10 µM
TGI (DU-145 prostate): > 10 µM
TGI (EKVX NSCLC): > 10 µM
TGI (HCT-116 colon): 5.89 µM
TGI (HCT-15 colon): > 10 µM
TGI (HL-60(TB) leukemia): 8.64 µM
TGI (HOP-62 NSCLC): > 10 µM
TGI (HOP-92 NSCLC): > 10 µM
TGI (HS 578T breast): > 10 µM
TGI (HT29 colon): > 10 µM
TGI (IGROV1 ovarian): > 10 µM
TGI (K-562 leukemia): > 10 µM
TGI (KM12 colon): > 10 µM
TGI (LOX IMVI melanoma): > 10 µM
TGI (M14 melanoma): > 10 µM
TGI (MALME-3M melanoma): > 10 µM
TGI (MCF7 breast): > 10 µM
TGI (MDA-MB-231 breast): 9.76 µM
TGI (MDA-MB-435): > 10 µM
TGI (MDA-N): > 10 µM
TGI (MOLT-4 leukemia): 9.57 µM
TGI (NCI-H226 lung): > 10 µM
TGI (NCI-H23 lung): > 10 µM
TGI (NCI-H460 lung): > 10 µM
TGI (NCI-H522 lung): > 10 µM
TGI (NCI/ADR-RES ovarian): > 10 µM
TGI (OVCAR-3 ovarian): > 10 µM
TGI (OVCAR-4 ovarian): > 10 µM
TGI (OVCAR-5 ovarian): > 10 µM
TGI (OVCAR-8 ovarian): > 10 µM
TGI (PC-3 prostate): > 10 µM
TGI (RPMI-8226 leukemia): > 10 µM
TGI (SF-268 CNS): > 10 µM
TGI (SF-295 CNS): > 10 µM
TGI (SF-539 CNS): 9.29 µM
TGI (SK-MEL-2 melanoma): > 10 µM
TGI (SK-MEL-5 melanoma): > 10 µM
TGI (SK-OV-3 ovarian): > 10 µM
TGI (SN12C renal): 9.16 µM
TGI (SNB-19 CNS): > 10 µM
TGI (SNB-75 CNS): > 10 µM
TGI (SR leukemia): 7.74 µM
TGI (SW-620 colon): > 10 µM
TGI (TK-10 renal): > 10 µM
TGI (U251 CNS): > 10 µM
TGI (UACC-257 melanoma): > 10 µM
TGI (UACC-62 melanoma): > 10 µM

CCO/C=N\c1c(C#N)c(-c2ccc(Cl)cc2)cn1-c1ccc(C)cc1
TGI (786-0 renal): > 100 µM
TGI (A498 renal): > 100 µM
TGI (A549 NSCLC): > 100 µM
TGI (ACHN renal): > 100 µM
TGI (BT-549 breast): > 100 µM
TGI (CAKI-1 renal): > 100 µM
TGI (CCRF-CEM leukemia): > 100 µM
TGI (COLO 205 colon): > 100 µM
TGI (DU-145 prostate): > 100 µM
TGI (EKVX NSCLC): > 100 µM
TGI (HCC-2998 colon): > 100 µM
TGI (HCT-116 colon): > 100 µM
TGI (HCT-15 colon): > 100 µM
TGI (HL-60(TB) leukemia): > 100 µM
TGI (HOP-62 NSCLC): > 100 µM
TGI (HOP-92 NSCLC): > 100 µM
TGI (HS 578T breast): > 100 µM
TGI (HT29 colon): > 100 µM
TGI (IGROV1 ovarian): > 100 µM
TGI (K-562 leukemia): > 100 µM
TGI (LOX IMVI melanoma): > 100 µM
TGI (M14 melanoma): > 100 µM
TGI (MALME-3M melanoma): > 100 µM
TGI (MCF7 breast): > 100 µM
TGI (MDA-MB-231 breast): > 100 µM
TGI (MDA-MB-435): > 100 µM
TGI (MDA-N): > 100 µM
TGI (NCI-H226 lung): > 100 µM
TGI (NCI-H23 lung): > 100 µM
TGI (NCI-H460 lung): > 100 µM
TGI (NCI-H522 lung): > 100 µM
TGI (NCI/ADR-RES ovarian): > 100 µM
TGI (OVCAR-3 ovarian): > 100 µM
TGI (OVCAR-4 ovarian): > 100 µM
TGI (OVCAR-5 ovarian): > 100 µM
TGI (OVCAR-8 ovarian): > 100 µM
TGI (PC-3 prostate): > 100 µM
TGI (RXF 393 renal): > 100 µM
TGI (SF-268 CNS): > 100 µM
TGI (SF-295 CNS): > 100 µM
TGI (SF-539 CNS): > 100 µM
TGI (SK-MEL-2 melanoma): > 100 µM
TGI (SK-MEL-28 melanoma): > 100 µM
TGI (SK-MEL-5 melanoma): > 100 µM
TGI (SK-OV-3 ovarian): > 100 µM
TGI (SN12C renal): > 100 µM
TGI (SNB-19 CNS): > 100 µM
TGI (SNB-75 CNS): > 100 µM
TGI (SR leukemia): > 100 µM
TGI (SW-620 colon): > 100 µM
TGI (TK-10 renal): > 100 µM
TGI (U251 CNS): > 100 µM
TGI (UACC-257 melanoma): > 100 µM
TGI (UACC-62 melanoma): > 100 µM
TGI (UO-31 renal): > 100 µM

Clc1nssc1=Nc1nonc1-c1ccccc1
TGI (786-0 renal): > 100 µM
TGI (A498 renal): > 100 µM
TGI (A549 NSCLC): > 100 µM
TGI (ACHN renal): 36.1 µM
TGI (BT-549 breast): 89.8 µM
TGI (CAKI-1 renal): 34.6 µM
TGI (CCRF-CEM leukemia): 90.8 µM
TGI (COLO 205 colon): 36.7 µM
TGI (DU-145 prostate): 53.5 µM
TGI (EKVX NSCLC): > 100 µM
TGI (HCC-2998 colon): > 100 µM
TGI (HCT-116 colon): > 100 µM
TGI (HCT-15 colon): > 100 µM
TGI (HL-60(TB) leukemia): 34.9 µM
TGI (HOP-62 NSCLC): > 100 µM
TGI (HOP-92 NSCLC): > 100 µM
TGI (HT29 colon): 52.2 µM
TGI (IGROV1 ovarian): 82 µM
TGI (K-562 leukemia): 70.1 µM
TGI (KM12 colon): 96 µM
TGI (LOX IMVI melanoma): > 100 µM
TGI (M14 melanoma): 37.2 µM
TGI (MALME-3M melanoma): 99.2 µM
TGI (MCF7 breast): > 100 µM
TGI (MDA-MB-231 breast): 34.5 µM
TGI (MDA-MB-435): > 100 µM
TGI (MDA-N): 41.2 µM
TGI (MOLT-4 leukemia): 69.8 µM
TGI (NCI-H226 lung): > 100 µM
TGI (NCI-H23 lung): 76.6 µM
TGI (NCI-H460 lung): > 100 µM
TGI (NCI-H522 lung): 43.4 µM
TGI (NCI/ADR-RES ovarian): 98.3 µM
TGI (OVCAR-3 ovarian): > 100 µM
TGI (OVCAR-4 ovarian): > 100 µM
TGI (OVCAR-5 ovarian): 49.3 µM
TGI (OVCAR-8 ovarian): > 100 µM
TGI (PC-3 prostate): > 100 µM
TGI (RPMI-8226 leukemia): 63.3 µM
TGI (RXF 393 renal): 59.6 µM
TGI (SF-295 CNS): > 100 µM
TGI (SF-539 CNS): 66.1 µM
TGI (SK-MEL-2 melanoma): > 100 µM
TGI (SK-MEL-28 melanoma): > 100 µM
TGI (SK-MEL-5 melanoma): 37 µM
TGI (SK-OV-3 ovarian): > 100 µM
TGI (SN12C renal): 42.4 µM
TGI (SNB-19 CNS): > 100 µM
TGI (SNB-75 CNS): 64.2 µM
TGI (SR leukemia): 68.6 µM
TGI (SW-620 colon): > 100 µM
TGI (U251 CNS): > 100 µM
TGI (UACC-257 melanoma): > 100 µM
TGI (UACC-62 melanoma): > 100 µM
TGI (UO-31 renal): 36.3 µM

CC(C)(C)[Si](C)(C)Oc1cc(CO)cc2c1cc(=N)o[n+]2[O-]
TGI (786-0 renal): > 10 µM
TGI (A549 NSCLC): > 10 µM
TGI (CAKI-1 renal): > 10 µM
TGI (CCRF-CEM leukemia): > 10 µM
TGI (COLO 205 colon): > 10 µM
TGI (DU-145 prostate): > 10 µM
TGI (EKVX NSCLC): > 10 µM
TGI (HCC-2998 colon): > 10 µM
TGI (HCT-15 colon): > 10 µM
TGI (HL-60(TB) leukemia): > 10 µM
TGI (HOP-62 NSCLC): > 10 µM
TGI (HT29 colon): > 10 µM
TGI (IGROV1 ovarian): > 10 µM
TGI (K-562 leukemia): > 10 µM
TGI (KM12 colon): > 10 µM
TGI (M14 melanoma): > 10 µM
TGI (MALME-3M melanoma): > 10 µM
TGI (MCF7 breast): 9.25 µM
TGI (MDA-MB-231 breast): > 10 µM
TGI (MDA-N): > 10 µM
TGI (MOLT-4 leukemia): 9.28 µM
TGI (NCI-H23 lung): > 10 µM
TGI (OVCAR-8 ovarian): > 10 µM
TGI (PC-3 prostate): > 10 µM
TGI (RPMI-8226 leukemia): > 10 µM
TGI (RXF 393 renal): > 10 µM
TGI (SF-268 CNS): > 10 µM
TGI (SF-295 CNS): > 10 µM
TGI (SK-MEL-28 melanoma): > 10 µM
TGI (SK-MEL-5 melanoma): > 10 µM
TGI (SK-OV-3 ovarian): > 10 µM
TGI (SN12C renal): > 10 µM
TGI (SNB-75 CNS): > 10 µM
TGI (SR leukemia): 7.58 µM
TGI (SW-620 colon): > 10 µM
TGI (T-47D breast): > 10 µM
TGI (TK-10 renal): > 10 µM
TGI (UACC-257 melanoma): > 10 µM
TGI (UACC-62 melanoma): > 10 µM
